Legend:
[1] = In vitro cytotoxicity by MTT assay, NCI-H226; format: cell-based; conditions: human, NCI-H226 lung cancer cells, 0.015 μM, read-out: % Cytotoxicity (100 − % cell survival) of NCI-H226 cell line
Procedure: (§1) The cancer cell line cultures of HEK 293 ([…]), BT474 (breast cancer cell line) and NCI-H226 (lung cancer) were obtained from Pasteur Institute of India, Coonoor, India, and were cultured in RPMI-1640 and 10 % heat-[…] New born calf serum with antibiotics [penicillin ([…]), streptomycin (100 μg/mL) and amphotericin B (25 μg/mL)]. The cells were maintained at 37 °C in a humidified atmosphere with 5 % CO2 and were subcultured twice a week.
(§2) The monolayer cell culture (100 μL) was trypsinized, and the cell count was adjusted to […] using medium containing 10 % new born calf serum. To each well of the 96-well microtitre plate, the diluted cell suspension (approximately 10,000 cells) (0.1 mL) was added and kept for 24 h in incubator at 37 °C in 5 % CO2 atmosphere for cell monolayer formation. After 24 h, when a partial monolayer was formed at the bottom of the well, the supernatant was flicked off, the monolayer was washed once, and different drugs, i.e. synthesized compounds (100 μL), were added to the cells in microtitre plates. The plates were then incubated at 37 °C for 3 days in 5 % CO2 atmosphere, and microscopic examination was carried out and observations recorded every 24 h. After 72 h, the sample solution in the wells was flicked off; MTT dye ([…]) was added to each well; plates were gently shaken and incubated for 4 h at 37 °C in 5 % CO2 incubator. The supernatant was removed and propanol (50 μL) was added; the plates were gently shaken to solubilize the formed formazan. The absorbance was measured using a microplate reader at a wavelength of 490 nm (Edmondson et al., [1988]; Prasad et al., [2005]; Chiruvella et al., [2008]; Chang et al., [2007]).

[2] = test system: NCI-H226 (lung cancer cell line); experiment: In vitro cytotoxicity by MTT assay, NCI-H226; format: cell-based; conditions: Homo sapiens, 72 h, read-out: % Cytotoxicity (100 − % cell survival) of NCI-H226 cell line; for cytotoxicity at 0.005 µM: NCI-H226, 0.005 μM; for cytotoxicity at 0.045 µM: NCI-H226, 0.045 μM; for cytotoxicity at 0.13 µM: NCI-H226, 0.13 μM; for cytotoxicity at 0.41 µM: NCI-H226, 0.41 μM; for cytotoxicity at 1.23 µM: NCI-H226, 1.23 μM; for cytotoxicity at 3.7 µM: NCI-H226, 3.7 μM; for cytotoxicity at 11.11 µM: NCI-H226, 11.11 μM; for cytotoxicity at 33.33 µM: NCI-H226, 33.33 μM; for cytotoxicity at 100 µM: NCI-H226, 100 μM
Procedure: as §1, §2

[3] = In vitro cytotoxicity by MTT assay, HEK 293; format: cell-based, human; conditions: human, HEK 293 cells, read-out: % cytotoxicity (100 − % cell survival) of HEK 293 cell line
Procedure: as §1, §2

[4] = test system: BT474 (breast cancer cell line); experiment: In vitro cytotoxicity by MTT assay, BT474; format: cell-based; conditions: Homo sapiens, 72 h, read-out: % cytotoxicity (100 − % cell survival) of BT474 cell line; for cytotoxicity at 0.005 µM: BT-474, 0.005 μM; for cytotoxicity at 0.015 µM: BT-474, 0.015 μM; for cytotoxicity at 0.045 µM: BT-474, 0.045 μM; for cytotoxicity at 0.13 µM: BT-474, 0.13 μM; for cytotoxicity at 0.41 µM: BT-474, 0.41 μM; for cytotoxicity at 1.23 µM: BT-474, 1.23 μM; for cytotoxicity at 3.7 µM: BT-474, 3.7 μM; for cytotoxicity at 11.11 µM: BT-474, 11.11 μM; for cytotoxicity at 33.33 µM: BT-474, 33.33 μM; for cytotoxicity at 100 µM: BT-474, 100 μM
Procedure: as §1, §2

Compound	cytotoxicity at 72 h, 0.015 µM [1] [%]	cytotoxicity at 0.005 µM [2] [%]	cytotoxicity at 0.045 µM [2] [%]	cytotoxicity at 0.13 µM [2] [%]	cytotoxicity at 0.41 µM [2] [%]	cytotoxicity at 1.23 µM [2] [%]	cytotoxicity at 3.7 µM [2] [%]	cytotoxicity at 11.11 µM [2] [%]	cytotoxicity at 33.33 µM [2] [%]	cytotoxicity at 100 µM [2] [%]	cytotoxicity at 72 h, 0.005 µM [3] [%]	cytotoxicity at 72 h, 0.015 µM [3] [%]	cytotoxicity at 72 h, 0.045 µM [3] [%]	cytotoxicity at 72 h, 0.13 µM [3] [%]	cytotoxicity at 72 h, 0.41 µM [3] [%]	cytotoxicity at 72 h, 1.23 µM [3] [%]	cytotoxicity at 72 h, 3.7 µM [3] [%]	cytotoxicity at 72 h, 11.11 µM [3] [%]	cytotoxicity at 72 h, 33.33 µM [3] [%]	cytotoxicity at 72 h, 100 µM [3] [%]	also measured
CC(=O)Nc1ccc(S(=O)(=O)Nc2nnc(S(=O)(=O)NC(=O)c3ccccc3O)s2)cc1 [Compound 6d]	36.4	35.5	37	39.1	41.2	42	43.4	45.3	47.3	49.1	33.3	34.8	35.1	35.9	36.7	37.2	38.4	39.3	40.7	41.3	cytotoxicity at 0.005 µM [4]: 26.3%; cytotoxicity at 0.015 µM [4]: 27.7%; cytotoxicity at 0.045 µM [4]: 28.9%; cytotoxicity at 0.13 µM [4]: 29.4%; cytotoxicity at 0.41 µM [4]: 30.6%; cytotoxicity at 1.23 µM [4]: 31%; cytotoxicity at 3.7 µM [4]: 32.1%; cytotoxicity at 11.11 µM [4]: 32.9%; cytotoxicity at 33.33 µM [4]: 33.3%; cytotoxicity at 100 µM [4]: 33.9%
CC(=O)Nc1ccc(S(=O)(=O)Nc2nnc(S(=O)(=O)NC(=O)c3ccc(Cl)cc3)s2)cc1 [Compound 6g]	35	33.5	36.8	37.3	39.8	40.6	41.3	42.6	43.2	46	15.1	16.5	18	18.3	20.1	20.8	24.2	26.1	28.7	32	cytotoxicity at 0.005 µM [4]: 30.5%; cytotoxicity at 0.015 µM [4]: 32.8%; cytotoxicity at 0.045 µM [4]: 33.9%; cytotoxicity at 0.13 µM [4]: 34.1%; cytotoxicity at 0.41 µM [4]: 37.6%; cytotoxicity at 1.23 µM [4]: 38.2%; cytotoxicity at 3.7 µM [4]: 39.5%; cytotoxicity at 11.11 µM [4]: 42.4%; cytotoxicity at 33.33 µM [4]: 44.2%; cytotoxicity at 100 µM [4]: 46.4%
Nc1ccc(S(=O)(=O)Nc2nnc(S(=O)(=O)NC(=O)c3ccccc3)s2)cc1 [Compound 7a]	28.4	27.4	29.2	29.4	30.4	32.2	34.5	35.1	36.2	36.9	23.7	25.8	26.4	28.6	30.2	32.5	32.5	33.5	34.1	35.7	cytotoxicity at 0.005 µM [4]: 34.1%; cytotoxicity at 0.015 µM [4]: 35%; cytotoxicity at 0.045 µM [4]: 36.7%; cytotoxicity at 0.13 µM [4]: 37.8%; cytotoxicity at 0.41 µM [4]: 38.2%; cytotoxicity at 1.23 µM [4]: 39.5%; cytotoxicity at 3.7 µM [4]: 40.7%; cytotoxicity at 11.11 µM [4]: 41.8%; cytotoxicity at 33.33 µM [4]: 43.7%; cytotoxicity at 100 µM [4]: 46.3%
Nc1ccc(S(=O)(=O)Nc2nnc(S(=O)(=O)NC(=O)c3ccccc3N)s2)cc1 [Compound 7b]	33.6	33.5	35.5	37	37.4	38.8	39.1	40.6	41.1	42.4	37.8	39.2	40.5	44	45.3	46.5	47.8	48.2	50.7	51.9	cytotoxicity at 0.005 µM [4]: 27.4%; cytotoxicity at 0.015 µM [4]: 28.1%; cytotoxicity at 0.045 µM [4]: 29.5%; cytotoxicity at 0.13 µM [4]: 30.2%; cytotoxicity at 0.41 µM [4]: 31.4%; cytotoxicity at 1.23 µM [4]: 32.2%; cytotoxicity at 3.7 µM [4]: 33.3%; cytotoxicity at 11.11 µM [4]: 34.6%; cytotoxicity at 33.33 µM [4]: 35.5%; cytotoxicity at 100 µM [4]: 36.6%
Nc1ccc(C(=O)NS(=O)(=O)c2nnc(NS(=O)(=O)c3ccc(N)cc3)s2)cc1 [Compound 7c]	34	33.2	34.8	36.6	37.8	38	38.2	38.6	38.9	40.3	36.5	38.2	40.6	42.7	43.4	45.3	47.1	49.1	49.2	49.9	cytotoxicity at 0.005 µM [4]: 18.8%; cytotoxicity at 0.015 µM [4]: 19.4%; cytotoxicity at 0.045 µM [4]: 19.8%; cytotoxicity at 0.13 µM [4]: 20.1%; cytotoxicity at 0.41 µM [4]: 21%; cytotoxicity at 1.23 µM [4]: 22.8%; cytotoxicity at 3.7 µM [4]: 24.2%; cytotoxicity at 11.11 µM [4]: 25.7%; cytotoxicity at 33.33 µM [4]: 26.4%; cytotoxicity at 100 µM [4]: 27.9%

Source: publication PMC3973950, “Synthesis of 5-arylidine amino-1,3,4-thiadiazol-2-[(N-substituted benzyol)]sulphonamides endowed with potent antioxidants and anticancer activity induces growth inhibition in HEK293, BT474 and NCI-H226 cells” (Medicinal Chemistry Research, 2013)
